≈ marks a conversion by molar mass, not a printed value.
Tests used:
[1] = system: Mycobacterium tuberculosis; assay: Antimycobacterial activity against drug-resistant Mycobacterium tuberculosis; assay type: functional
[2] = system: Mycobacterium tuberculosis; assay: Antimycobacterial activity against extensively drug-resistant Mycobacterium tuberculosis; assay type: functional

CCNC(=O)Nc1nc2nc(-c3cnc(C(C)(C)O)nc3)c(F)c([C@H]3CCCO3)c2[nH]1
MIC [1]: 0.08 µg/mL (≈ 0.186 µM)

Cc1cc(/C=C/c2ccc3cc(N(C)C)ccc3[n+]2C)c(C)n1-c1ccccc1.Cc1cc(/C=C/c2ccc3cc(N(C)C)ccc3[n+]2C)c(C)n1-c1ccccc1.O=C(O)c1cc2ccccc2c(Cc2c(O)c(C(=O)O)cc3ccccc23)c1O
MIC99 [1]: 1.55 µg/mL

O=[N+]([O-])c1cn2c(n1)OC[C@@H](OCc1ccc(OC(F)(F)F)cc1)C2 [PRETOMANID]
MIC [1]: 0.03 µg/mL (≈ 0.0835 µM)

C[C@@H](O)[C@H]1C(=O)N2C(C(=O)O)=C(SC3CN(C4=NCCS4)C3)[C@H](C)[C@H]12 [TEBIPENEM]
MIC [2]: 0.3 µM (≈ 0.115 µg/mL)

From ChEMBL document CHEMBL5126519, “Tuberculosis drug discovery: Progression and future interventions in the wake of emerging resistance” (Eur J Med Chem, 2022)
